Measurements as given in ChEMBL document CHEMBL1909046, “DrugMatrix in vitro pharmacology data”.

Experiments:
[1] = biological target: Tyrosine-protein kinase Lck (Homo sapiens, UniProt P06239); assay: DRUGMATRIX: Protein Tyrosine Kinase, LCK enzyme inhibition (substrate: Poly(Glu:Tyr)); assay type: cell-based, Insect cells; conditions: insect cells; Not Active = under 50% inhibition at 10 µM
Glycine receptor = Glycine receptor (Rattus norvegicus, UniProt P22771+P24524+P07727+P20781); assay type: cell membranes, Wistar, Spinal cord, Membrane; note: in other assays of this panel Not Active means under 50% inhibition at 10 µM
Cathepsin G = biological target: T1, Cathepsin G (Homo sapiens, UniProt P08311); assay type: tissue-based; conditions: neutrophil;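 note: inhibition of Cathepsin G enzyme activity, tested on an AMC-conjugated peptide substrate; in other assays of this panel Not Active means under 50% inhibition at 10 µM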
T1 sequence (P08311 whole entry): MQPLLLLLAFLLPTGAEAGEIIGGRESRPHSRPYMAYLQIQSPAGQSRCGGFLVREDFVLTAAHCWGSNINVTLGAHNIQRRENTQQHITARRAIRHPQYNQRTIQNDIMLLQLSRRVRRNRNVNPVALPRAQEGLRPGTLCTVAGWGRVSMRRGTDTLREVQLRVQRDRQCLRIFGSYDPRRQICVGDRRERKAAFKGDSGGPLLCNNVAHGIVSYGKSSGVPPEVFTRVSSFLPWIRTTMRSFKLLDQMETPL

[2] = DRUGMATRIX: Purinergic P2X radioligand binding (ligand: [3H] alpha, beta-Methylene-ATP); assay type: cell membranes, Oryctolagus cuniculus, New Zealand albino, Urinary bladder, Membrane; conditions: Not Active = under 50% inhibition at 10 µM
[3] = biological target: T2, Muscarinic acetylcholine receptor M2 (Homo sapiens, UniProt P08172); assay type: cell membranes, CHO-K1, Membrane; conditions: cho-k1; note: in other assays of this panel Not Active means under 50% inhibition at 10 µM
T2 sequence (P08172 whole entry): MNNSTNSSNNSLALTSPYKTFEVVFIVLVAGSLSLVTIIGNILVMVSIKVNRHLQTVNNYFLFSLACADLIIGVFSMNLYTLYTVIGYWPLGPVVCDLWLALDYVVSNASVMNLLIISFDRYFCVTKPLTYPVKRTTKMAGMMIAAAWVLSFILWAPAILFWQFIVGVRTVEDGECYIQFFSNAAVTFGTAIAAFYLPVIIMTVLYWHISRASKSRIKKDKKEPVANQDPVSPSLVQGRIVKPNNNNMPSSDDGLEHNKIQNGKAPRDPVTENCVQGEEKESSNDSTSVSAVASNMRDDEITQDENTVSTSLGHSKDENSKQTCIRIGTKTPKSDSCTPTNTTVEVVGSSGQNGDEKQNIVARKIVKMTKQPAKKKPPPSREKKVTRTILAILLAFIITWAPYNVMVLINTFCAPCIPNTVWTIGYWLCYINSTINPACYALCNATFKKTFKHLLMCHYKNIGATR

Substance-P receptor = Substance-P receptor (Homo sapiens, UniProt P25103); assay type: cell membranes, CHO, Membrane; conditions: cho; note: in other assays of this panel Not Active means under 50% inhibition at 10 µM
Acetylcholinesterase = Acetylcholinesterase (Homo sapiens, UniProt P22303); assay: DRUGMATRIX: Acetylcholinesterase enzyme inhibition (substrate: acetylthiocholine); assay type: cell-based, HEK293; conditions: hek293; Not Active = under 50% inhibition at 10 µM
Neutrophil elastase = biological target: T3, Neutrophil elastase (Homo sapiens, UniProt P08246); assay type: tissue-based
T3 sequence (P08246 whole entry): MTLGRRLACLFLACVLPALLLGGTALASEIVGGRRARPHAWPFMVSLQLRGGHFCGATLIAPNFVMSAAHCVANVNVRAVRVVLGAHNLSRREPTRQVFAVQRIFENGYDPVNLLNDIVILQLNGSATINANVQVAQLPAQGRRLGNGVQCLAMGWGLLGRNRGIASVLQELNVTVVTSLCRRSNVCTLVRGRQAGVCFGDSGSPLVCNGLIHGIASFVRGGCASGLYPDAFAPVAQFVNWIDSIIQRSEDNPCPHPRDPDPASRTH

[4] = DRUGMATRIX: ATPase, Na+/K+ enzyme inhibition (substrate: ATP); assay type: tissue-based, Sus scrofa, Heart; conditions: Not Active = under 50% inhibition at 10 µM
Adenosine receptor A1 = biological target: T4, Adenosine receptor A1 (Homo sapiens, UniProt P30542); assay type: cell membranes, CHO, Membrane; conditions: cho
T4 sequence (P30542 whole entry): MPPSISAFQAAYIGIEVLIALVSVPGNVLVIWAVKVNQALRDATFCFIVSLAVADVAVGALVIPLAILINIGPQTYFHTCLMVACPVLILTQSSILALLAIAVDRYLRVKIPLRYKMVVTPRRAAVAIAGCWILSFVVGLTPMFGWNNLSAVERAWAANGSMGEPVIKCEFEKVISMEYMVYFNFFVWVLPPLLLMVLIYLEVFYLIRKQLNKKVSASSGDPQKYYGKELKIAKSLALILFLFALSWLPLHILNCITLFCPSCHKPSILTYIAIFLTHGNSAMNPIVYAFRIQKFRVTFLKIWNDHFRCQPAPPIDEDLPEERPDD

[5] = DRUGMATRIX: Interleukin IL-1 radioligand binding (ligand: [125I] interleukin 1beta); assay type: cell membranes, Membrane; conditions: nih3t3; Not Active = under 50% inhibition at 10 µM
Melanocortin receptor 5 = Melanocortin receptor 5 (Homo sapiens, UniProt P33032); assay type: cell membranes, HEK293, Membrane; conditions: hek293; note: in other assays of this panel Not Active means under 50% inhibition at 10 µM
[6] = biological target: T5, 5-hydroxytryptamine receptor 2C (Homo sapiens, UniProt P28335); assay: DRUGMATRIX: Serotonin (5-Hydroxytryptamine) 5-HT2C radioligand binding (ligand: [3H] Mesulergine); assay type: cell membranes, CHO-K1, Membrane; conditions: cho-k1; Not Active = under 50% inhibition at 10 µM
T5 sequence (P28335 whole entry): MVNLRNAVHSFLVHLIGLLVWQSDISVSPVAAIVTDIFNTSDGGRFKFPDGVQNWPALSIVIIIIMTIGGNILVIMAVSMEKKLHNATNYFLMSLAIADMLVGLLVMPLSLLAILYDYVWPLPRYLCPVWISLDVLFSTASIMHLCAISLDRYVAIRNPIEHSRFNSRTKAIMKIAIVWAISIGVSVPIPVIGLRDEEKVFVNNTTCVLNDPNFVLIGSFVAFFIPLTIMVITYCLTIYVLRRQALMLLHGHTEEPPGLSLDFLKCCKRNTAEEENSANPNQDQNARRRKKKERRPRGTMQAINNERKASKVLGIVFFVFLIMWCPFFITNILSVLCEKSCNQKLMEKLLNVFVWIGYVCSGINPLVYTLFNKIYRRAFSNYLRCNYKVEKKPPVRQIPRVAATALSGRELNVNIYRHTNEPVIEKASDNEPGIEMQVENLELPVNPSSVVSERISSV

Sequence of Tyrosine-protein kinase Lck (P06239 whole entry): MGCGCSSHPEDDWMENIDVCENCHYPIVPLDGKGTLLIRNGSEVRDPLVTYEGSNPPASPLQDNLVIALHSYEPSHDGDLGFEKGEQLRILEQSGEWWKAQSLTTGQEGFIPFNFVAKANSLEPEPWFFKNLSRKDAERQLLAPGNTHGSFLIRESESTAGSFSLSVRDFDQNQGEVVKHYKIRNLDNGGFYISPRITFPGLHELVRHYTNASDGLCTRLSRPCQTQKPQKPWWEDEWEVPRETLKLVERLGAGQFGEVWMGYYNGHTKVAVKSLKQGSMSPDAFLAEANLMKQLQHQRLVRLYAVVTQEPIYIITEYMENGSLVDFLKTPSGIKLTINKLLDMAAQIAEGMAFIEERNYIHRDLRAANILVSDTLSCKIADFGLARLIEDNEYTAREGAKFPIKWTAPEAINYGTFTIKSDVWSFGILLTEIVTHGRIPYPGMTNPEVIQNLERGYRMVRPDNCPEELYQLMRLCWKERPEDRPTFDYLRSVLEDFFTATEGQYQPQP
Sequence of Substance-P receptor (P25103 whole entry): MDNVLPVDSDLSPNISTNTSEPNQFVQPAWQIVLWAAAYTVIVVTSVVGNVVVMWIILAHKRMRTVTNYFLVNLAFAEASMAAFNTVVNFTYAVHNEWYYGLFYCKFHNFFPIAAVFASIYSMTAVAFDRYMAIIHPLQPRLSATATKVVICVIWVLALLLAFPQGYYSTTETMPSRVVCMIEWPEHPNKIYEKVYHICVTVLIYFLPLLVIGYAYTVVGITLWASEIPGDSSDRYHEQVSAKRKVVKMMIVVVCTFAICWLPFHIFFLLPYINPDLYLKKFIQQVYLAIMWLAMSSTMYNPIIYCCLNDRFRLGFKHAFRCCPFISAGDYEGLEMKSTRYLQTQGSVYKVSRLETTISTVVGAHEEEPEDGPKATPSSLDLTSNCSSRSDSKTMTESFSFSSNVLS
Sequence of Melanocortin receptor 5 (P33032 whole entry): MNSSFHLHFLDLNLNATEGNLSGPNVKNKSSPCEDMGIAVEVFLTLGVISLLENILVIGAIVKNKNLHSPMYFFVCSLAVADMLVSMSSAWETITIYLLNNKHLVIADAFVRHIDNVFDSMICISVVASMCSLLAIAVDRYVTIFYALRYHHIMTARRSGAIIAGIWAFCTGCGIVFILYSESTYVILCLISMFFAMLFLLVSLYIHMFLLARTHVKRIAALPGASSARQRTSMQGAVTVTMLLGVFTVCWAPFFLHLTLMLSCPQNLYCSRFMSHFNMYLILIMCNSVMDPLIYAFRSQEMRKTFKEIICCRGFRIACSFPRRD
Sequence of Acetylcholinesterase (P22303 whole entry): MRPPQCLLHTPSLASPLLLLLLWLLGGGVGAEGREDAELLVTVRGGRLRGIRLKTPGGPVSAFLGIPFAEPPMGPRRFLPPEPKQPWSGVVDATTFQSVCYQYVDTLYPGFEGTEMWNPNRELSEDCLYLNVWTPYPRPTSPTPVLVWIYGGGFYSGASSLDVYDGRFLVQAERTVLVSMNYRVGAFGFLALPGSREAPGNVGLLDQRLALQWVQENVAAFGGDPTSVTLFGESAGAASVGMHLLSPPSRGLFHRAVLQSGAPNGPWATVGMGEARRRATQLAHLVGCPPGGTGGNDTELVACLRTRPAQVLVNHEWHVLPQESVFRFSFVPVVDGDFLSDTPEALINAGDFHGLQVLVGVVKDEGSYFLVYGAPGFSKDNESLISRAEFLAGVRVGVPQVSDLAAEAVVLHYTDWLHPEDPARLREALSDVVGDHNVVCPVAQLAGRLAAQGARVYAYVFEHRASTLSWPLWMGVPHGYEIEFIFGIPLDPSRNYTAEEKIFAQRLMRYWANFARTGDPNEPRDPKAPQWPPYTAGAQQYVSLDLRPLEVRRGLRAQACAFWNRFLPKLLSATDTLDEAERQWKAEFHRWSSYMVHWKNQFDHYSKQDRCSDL

C=CC[C@@H]1/C=C(\C)C[C@H](C)C[C@H](OC)[C@H]2O[C@@](O)(C(=O)C(=O)N3CCCC[C@H]3C(=O)O[C@H](/C(C)=C/[C@@H]3CC[C@@H](O)[C@H](OC)C3)[C@H](C)[C@@H](O)CC1=O)[C@H](C)C[C@@H]2OC [TACROLIMUS ANHYDROUS]
Not Active: IC50 [1] | IC50 (Glycine receptor) | IC50 (Cathepsin G) | IC50 [2] | Ki [2] | IC50 [3] | IC50 (Substance-P receptor) | IC50 (Acetylcholinesterase) | IC50 (Neutrophil elastase) | IC50 [4] | Ki [4] | IC50 (Adenosine receptor A1) | IC50 [5] | Ki [5] | IC50 (Melanocortin receptor 5) | IC50 [6]

CC1CN(c2cc3c(cc2F)c(=O)c(C(=O)O)cn3-c2ccc(F)cc2F)CCN1 (stereo not given) [TEMAFLOXACIN]
Not Active: IC50 [1] | IC50 (Glycine receptor) | IC50 (Cathepsin G) | IC50 [2] | Ki [2] | IC50 [3] | IC50 (Substance-P receptor) | IC50 (Acetylcholinesterase) | IC50 (Neutrophil elastase) | IC50 [4] | Ki [4] | IC50 (Adenosine receptor A1) | IC50 [5] | Ki [5] | IC50 (Melanocortin receptor 5) | IC50 [6]

CC(C)(C)NCC(O)c1cc(O)cc(O)c1 (stereo not given) [TERBUTALINE]
Not Active: IC50 [1] | IC50 (Glycine receptor) | IC50 (Cathepsin G) | IC50 [2] | Ki [2] | IC50 [3] | IC50 (Substance-P receptor) | IC50 (Acetylcholinesterase) | IC50 (Neutrophil elastase) | IC50 [4] | Ki [4] | IC50 (Adenosine receptor A1) | IC50 [5] | Ki [5] | IC50 (Melanocortin receptor 5) | IC50 [6]

CN(C)[C@@H]1C(O)=C(C(N)=O)C(=O)[C@@]2(O)C(O)=C3C(=O)c4c(O)cccc4[C@@](C)(O)[C@H]3C[C@@H]12 [TETRACYCLINE]
Not Active: IC50 [1] | IC50 (Glycine receptor) | IC50 (Cathepsin G) | IC50 [2] | Ki [2] | IC50 [3] | IC50 (Substance-P receptor) | IC50 (Acetylcholinesterase) | IC50 (Neutrophil elastase) | IC50 [4] | Ki [4] | IC50 (Adenosine receptor A1) | IC50 [5] | Ki [5] | IC50 (Melanocortin receptor 5) | IC50 [6]

c1ccc2[nH]c(-c3cscn3)nc2c1 [THIABENDAZOLE]
Not Active: IC50 [1] | IC50 (Glycine receptor) | IC50 (Cathepsin G) | IC50 [2] | Ki [2] | IC50 [3] | IC50 (Substance-P receptor) | IC50 (Acetylcholinesterase) | IC50 (Neutrophil elastase) | IC50 [4] | Ki [4] | IC50 (Adenosine receptor A1) | IC50 [5] | Ki [5] | IC50 (Melanocortin receptor 5) | IC50 [6]

Cc1ccc(C(=O)C(C)CN2CCCCC2)cc1 (stereo not given) [TOLPERISONE]
Not Active: IC50 [1] | IC50 (Glycine receptor) | IC50 (Cathepsin G) | IC50 [2] | Ki [2] | IC50 [3] | IC50 (Substance-P receptor) | IC50 (Acetylcholinesterase) | IC50 (Neutrophil elastase) | IC50 [4] | Ki [4] | IC50 (Adenosine receptor A1) | IC50 [5] | Ki [5] | IC50 (Melanocortin receptor 5) | IC50 [6]

NC(CO)(CO)CO [TROMETHAMINE]
Not Active: IC50 [1] | IC50 (Glycine receptor) | IC50 (Cathepsin G) | IC50 [2] | Ki [2] | IC50 [3] | IC50 (Substance-P receptor) | IC50 (Acetylcholinesterase) | IC50 (Neutrophil elastase) | IC50 [4] | Ki [4] | IC50 (Adenosine receptor A1) | IC50 [5] | Ki [5] | IC50 (Melanocortin receptor 5) | IC50 [6]

CN1[C@@H]2CC[C@H]1C[C@@H](OC(=O)c1c[nH]c3ccccc13)C2 [TROPISETRON]
Not Active: IC50 [1] | IC50 (Glycine receptor) | IC50 (Cathepsin G) | IC50 [2] | Ki [2] | IC50 [3] | IC50 (Substance-P receptor) | IC50 (Acetylcholinesterase) | IC50 (Neutrophil elastase) | IC50 [4] | Ki [4] | IC50 (Adenosine receptor A1) | IC50 [5] | Ki [5] | IC50 (Melanocortin receptor 5) | IC50 [6]

COc1cc(C(=O)NC2CCCNC2)cc(OC)c1OC (stereo not given) [TROXIPIDE]
Not Active: IC50 [1] | IC50 (Glycine receptor) | IC50 (Cathepsin G) | IC50 [2] | Ki [2] | IC50 [3] | IC50 (Substance-P receptor) | IC50 (Acetylcholinesterase) | IC50 (Neutrophil elastase) | IC50 [4] | Ki [4] | IC50 (Adenosine receptor A1) | IC50 [5] | Ki [5] | IC50 (Melanocortin receptor 5) | IC50 [6]

CC(C)[C@H](N)C(=O)OCCOCn1cnc2c(=O)nc(N)[nH]c21 [VALACYCLOVIR]
Not Active: IC50 [1] | IC50 (Glycine receptor) | IC50 (Cathepsin G) | IC50 [2] | Ki [2] | IC50 [3] | IC50 (Substance-P receptor) | IC50 (Acetylcholinesterase) | IC50 (Neutrophil elastase) | IC50 [4] | Ki [4] | IC50 (Adenosine receptor A1) | IC50 [5] | Ki [5] | IC50 (Melanocortin receptor 5) | IC50 [6]
